Key:
MFE296 cells [1] = assay: Cell cycle analysis, MFE296; format: cell-based, human; settings: MFE296, data not shown
Experimental: (§1) Cells were plated at a density of 4×10^5 cells per well in a 6 well plate. The next day, cells were infected with lentiviral stocks in the presence of 6 μg/ml polybrene (Sigma-Aldrich, St. Louis, Mo.). Empty vector and nonsilencing shRNA infections were used as controls for each experiment. […] Growth Inhibition Assay Twenty-four hours after infection, cells were trypsinized and plated in 96 well plates in full growth medium at a density of 5,000 cells per well, in triplicate, and proliferation assessed using the Sulforhodamine B (SRB) assay (Sigma-Aldrich, St. Louis, Mo.). […] The protein-bound dye was dissolved in 10 mM Tris base solution, and absorbance measured at 510 nm. […] 48 hours after transfection, floating and attached cells were collected, washed in cold PBS, resuspended in Annexin binding buffer (10 mM Hepes (pH 7.4), 140 mM NaCl, 2.5 mM CaCl2), stained with 500 ng/mL annexinV-FITC and 1 μg/mL propidium iodide (Sigma-Aldrich, St. Louis, Mo.), and analyzed for annexin positive cells using a CyAn ADP flow cytometer and Summit software, version 4.3 (Dako Cytomation, Carpinteria, Calif.). […] 72 hours later, cells were stained with propidium iodide as described {Krishan, 1975 #28} and analyzed by flow cytometry. […] FGFR2 expression was detected with BekC17 antibody (Santa Cruz Biotechnology, Inc., Santa Cruz, Calif.). […]

[2] = test system: Ishikawa cells (wildtype FGFR2); assay: SRB cell viability assay, Ishikawa; format: cell-based; settings: Homo sapiens, read-out: PD173074 IC50, cell viability, SRB assay 72 hours after addition, full growth medium
Experimental: as §1

[3] = test system: RL952 cells (wildtype FGFR2); assay: SRB cell viability assay, RL952; format: cell-based; settings: Homo sapiens, RL95-2, read-out: PD173074 IC50, cell viability; RL952, SRB assay 72 hours after addition, full growth medium
Experimental: as §1

AKT = assay: Western blot, activation of AKT; format: cell-based, human; settings: for AKT activation: HEC1A
Experimental: (§2) Cells were plated at a density of 4×10^5 cells per well in a 6 well plate. The next day, cells were infected with lentiviral stocks in the presence of 6 μg/ml polybrene (Sigma-Aldrich, St. Louis, Mo.). Empty vector and nonsilencing shRNA infections were used as controls for each experiment. […] Growth Inhibition Assay Twenty-four hours after infection, cells were trypsinized and plated in 96 well plates in full growth medium at a density of 5,000 cells per well, in triplicate, and proliferation assessed using the Sulforhodamine B (SRB) assay (Sigma-Aldrich, St. Louis, Mo.). At the indicated time points, wells were fixed with 10% (wt/vol) trichloroacetic acid, stained with SRB for 30 min, and washed with 1% (vol/vol) acetic acid. The protein-bound dye was dissolved in 10 mM Tris base solution, and absorbance measured at 510 nm. […] Annexin V-FITC Labeling of Apoptotic Cells Annexin V-FITC staining was used to measure phosphatidylserine exposure on cells undergoing apoptosis, according to the manufacturer's instructions (BioVision, Inc. Mountain View, Calif.). […] 2.5×10^5 cells were plated per well in a 6 well plate. Twenty-four hours later, cells were transfected with 25 nM nonsilencing (NS) siRNA or FGFR2 siRNA X2 using Lipofectamine 2000 transfection reagent. The siRNA duplex was allowed to form a complex with Lipofectamine 2000 for 20 minutes at room temperature, and transfection carried out at 37° C. for 24 hours. 48 hours after transfection, floating and attached cells were collected, washed in cold PBS, resuspended in Annexin binding buffer (10 mM Hepes (pH 7.4), 140 mM NaCl, 2.5 mM CaCl2), stained with 500 ng/mL annexinV-FITC and 1 μg/mL propidium iodide (Sigma-Aldrich, St. Louis, Mo.), and analyzed for annexin positive cells using a CyAn ADP flow cytometer and Summit software, version 4.3 (Dako Cytomation, Carpinteria, Calif.). […] Cell Cycle Analysis Cells were plated at a density of 1×10^5 cells per well in a 6 well plate. […] 72 hours later, cells were stained with propidium iodide as described {Krishan, 1975 #28} and analyzed by flow cytometry. Cell cycle analysis was performed using ModFit software (Verity Software House, Inc. Topsham, Me.). Western Blot Analysis Cells were plated in 60 mm^2 dishes at a density of 2×10^6 cells per dish. […] Cells were washed in ice cold PBS, lysed in kinase buffer [20 mM Hepes pH7.4, 2 mM EGTA, 1% Triton X100, 10% glycerol, 1 mM Na3VO4, 1 mM NaF, 100 uM AEBSF, and 1 tablet/10 mL of Mini Complete Protease Inhibitor (Roche Molecular Biochemicals, Indianapolis, Ind.)], briefly sonicated on ice, and protein concentrations estimated using Quick Start Bradford Reagent with bovine gamma-globulin standards (Bio-Rad Laboratories, Hercules, Calif.). Equal amounts of protein were separated by SDS-PAGE on 4-12% gradient gels and transferred to polyvinylidene difluoride membranes (Invitrogen, Carlsbad, Calif.). Membranes were immunoblotted with antibodies to phosphorylated and total AKT, ERK1/2, p38, STAT-3 and STAT-5, PLCγ and total PTEN (Cell Signaling Technology, Beverly, Mass.). FGFR2 expression was detected with BekC17 antibody (Santa Cruz Biotechnology, Inc., Santa Cruz, Calif.). Horseradish peroxidase-conjugated goat anti-mouse or anti-rabbit secondary antibodies (Biomeda, Foster City, Calif.), were used, followed by chemiluminescence staining. For shRNA studies, lysates were collected 48 hours after shRNA transduction and processed as described above. Statistical Analysis

[4] = test system: myeloma cells with an activating t(4; 14) translocation and activating mutations in FGFR3; settings: t(4; 14) translocation and activating FGFR3 mutations; cited from earlier work
ERK1/2 = assay: Western blot, activation of ERK1/2; format: cell-based, human
Experimental: as §2

AN3CA cells [5] = assay: Annexin V-FITC labeling of apoptotic cells, AN3CA; format: cell-based, human
Experimental: as §1

VEGFR2 = VEGFR2 (Homo sapiens, UniProt P35968); settings: cited from earlier work
Chain of VEGFR2 (P35968 20-1356, species assumed): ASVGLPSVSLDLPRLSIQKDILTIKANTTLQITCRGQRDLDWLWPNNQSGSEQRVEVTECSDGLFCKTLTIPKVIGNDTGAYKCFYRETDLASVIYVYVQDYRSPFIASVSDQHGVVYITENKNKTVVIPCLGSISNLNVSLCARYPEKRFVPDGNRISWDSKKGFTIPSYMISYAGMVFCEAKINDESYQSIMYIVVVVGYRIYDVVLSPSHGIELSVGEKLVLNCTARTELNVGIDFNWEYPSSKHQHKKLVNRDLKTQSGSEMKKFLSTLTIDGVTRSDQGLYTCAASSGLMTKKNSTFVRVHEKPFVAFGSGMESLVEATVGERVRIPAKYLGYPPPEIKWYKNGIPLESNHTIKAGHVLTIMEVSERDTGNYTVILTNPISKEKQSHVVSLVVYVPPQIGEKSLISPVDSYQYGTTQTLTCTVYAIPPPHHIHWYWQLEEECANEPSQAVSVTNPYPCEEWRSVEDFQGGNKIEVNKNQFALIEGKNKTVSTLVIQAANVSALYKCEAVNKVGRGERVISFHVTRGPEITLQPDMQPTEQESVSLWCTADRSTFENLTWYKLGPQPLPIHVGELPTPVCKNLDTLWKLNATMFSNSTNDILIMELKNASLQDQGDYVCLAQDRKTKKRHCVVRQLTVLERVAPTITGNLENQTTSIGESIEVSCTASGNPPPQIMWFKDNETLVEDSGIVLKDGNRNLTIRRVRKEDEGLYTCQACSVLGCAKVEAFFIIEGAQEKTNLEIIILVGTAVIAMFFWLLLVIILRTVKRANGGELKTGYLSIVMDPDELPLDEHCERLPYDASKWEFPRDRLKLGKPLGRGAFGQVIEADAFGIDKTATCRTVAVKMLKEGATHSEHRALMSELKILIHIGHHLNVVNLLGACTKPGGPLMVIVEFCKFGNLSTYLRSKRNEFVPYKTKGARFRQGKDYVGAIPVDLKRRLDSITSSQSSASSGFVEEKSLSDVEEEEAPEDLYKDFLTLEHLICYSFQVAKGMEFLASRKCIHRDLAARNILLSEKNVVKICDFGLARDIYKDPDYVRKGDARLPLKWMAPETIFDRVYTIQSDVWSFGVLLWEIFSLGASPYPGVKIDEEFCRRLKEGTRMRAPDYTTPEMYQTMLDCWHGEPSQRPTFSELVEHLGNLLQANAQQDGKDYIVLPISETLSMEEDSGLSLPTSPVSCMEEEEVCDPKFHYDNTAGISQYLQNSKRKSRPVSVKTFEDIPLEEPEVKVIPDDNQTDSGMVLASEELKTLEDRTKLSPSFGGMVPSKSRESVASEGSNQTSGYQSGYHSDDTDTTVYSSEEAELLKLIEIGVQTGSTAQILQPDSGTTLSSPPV

MFE296 cells [6] = assay: Annexin V-FITC labeling of apoptotic cells, MFE296; format: cell-based, human; settings: MFE296, data not shown
Experimental: as §1

PLCγ = assay: Western blot, activation of PLCγ; format: cell-based, human; settings: following PD173074 treatment, data not shown
Experimental: as §1

[7] = test system: Hec1A (FGFR2 wild type) xenograft tumors; assay: Hec1A xenograft tumor growth; settings: 25 mg/kg twice daily by oral gavage
Experimental: (§3) Briefly, mice were inoculated subcutaneously with 0.1 ml of a 50% RPMI/50% Matrigel™ mixture containing a suspension of tumor cells (1×10^7 cells/mouse). […] Tumor weight measurements were recorded three times a week.

[8] = test system: MFE296 cells (N550K FGFR2 mutation); assay: SRB cell proliferation/viability assay, MFE296; format: cell-based; settings: Homo sapiens, MFE-296, read-out: PD173074 IC50, cell viability; MFE296, SRB assay 72 hours after addition, full growth medium
Experimental: as §1

[9] = test system: HEC1A cells (wildtype FGFR2); assay: SRB cell viability assay, HEC1A; format: cell-based; settings: Homo sapiens, HEC-1-A, read-out: PD173074 IC50, cell viability, SRB assay 72 hours after addition, full growth medium
Experimental: as §1

AN3CA cells [10] = assay: Cell cycle analysis (propidium iodide, flow cytometry), AN3CA; format: cell-based, human; settings: 1 μM, 72 hrs
Experimental: as §1

[11] = test system: KLE cells (wildtype FGFR2); assay: SRB cell viability assay, KLE; format: cell-based; settings: Homo sapiens, read-out: PD173074 IC50, cell viability, SRB assay 72 hours after addition, full growth medium
STAT3 = assay: Western blot, activation of STAT3; format: cell-based, human; settings: 10% FBS
Experimental: as §2

p38 = assay: Western blot, activation of p38; format: cell-based, human; settings: 10% FBS
Experimental: as §2

[12] = test system: AN3CA cells (N550K FGFR2 mutation); assay: SRB cell proliferation/viability assay, AN3CA; format: cell-based; settings: Homo sapiens, AN3-CA, read-out: PD173074 IC50, cell viability, SRB assay 72 hours after addition, full growth medium
[13] = test system: AN3CA (FGFR2 N550K mutant) xenograft tumors; assay: AN3CA xenograft tumor growth; settings: 25 mg/kg twice daily by oral gavage
Experimental: as §3

[14] = AN3CA, 1 μM, 0 to 72 hours, 0.2% FBS
[15] = AN3CA, 1 μM, 0 to 72 hours, 10% FBS
[16] = AN3CA, increasing concentrations, 3 hours, 10% FBS
[17] = MFE296, 1 μM, 0 to 72 hours, 0.2% FBS
[18] = MFE296, 1 μM, 0 to 72 hours, 10% FBS
[19] = MFE296, increasing concentrations, 3 hours, 10% FBS
[20] = AN3CA, increasing concentrations, 3 hours
[21] = HEC1A, increasing concentrations, 3 hours
[22] = MFE296, increasing concentrations, 3 hours

CCN(CC)CCCCNc1ncc2cc(-c3cc(OC)cc(OC)c3)c(NC(=O)NC(C)(C)C)nc2n1 [PD173074]
cell cycle effect (MFE296 cells [1]): induced cell cycle arrest
IC50 [2]: 2920 nM
IC50 [3]: > 1000 nM
AKT phosphorylation (AKT; [14]): modest suppression of AKT phosphorylation
AKT phosphorylation (AKT; [15]): partial suppression of AKT phosphorylation
AKT phosphorylation (AKT; [16]): modest suppression of AKT phosphorylation
AKT activation (AKT; 1 μM, 0 to 72 hours, 0.2% FBS): no effect
AKT activation (AKT; 1 μM, 0 to 72 hours, 10% FBS): no effect
AKT activation (AKT; increasing concentrations, 3 hours, 10% FBS): no effect
AKT phosphorylation (AKT; [17]): modest suppression of AKT phosphorylation
AKT phosphorylation (AKT; [18]): partial suppression of AKT phosphorylation
AKT phosphorylation (AKT; [19]): modest suppression of AKT phosphorylation
apoptosis in myeloma cells [4]: induce apoptosis
ERK1/2 activation (ERK1/2; [14]): suppression of ERK1/2 activation
ERK1/2 activation (ERK1/2; [15]): suppression of ERK1/2 activation
ERK1/2 activation (ERK1/2; [16]): suppression of ERK1/2 activation
ERK1/2 activation (ERK1/2; HEC1A, 1 μM, 0 to 72 hours, 0.2% FBS): no effect
ERK1/2 activation (ERK1/2; HEC1A, 1 μM, 0 to 72 hours, 10% FBS): no effect
ERK1/2 activation (ERK1/2; HEC1A, increasing concentrations, 3 hours, 10% FBS): no effect
ERK1/2 activation (ERK1/2; [17]): suppression of ERK1/2 activation
ERK1/2 activation (ERK1/2; [18]): suppression of ERK1/2 activation
ERK1/2 activation (ERK1/2; [19]): suppression of ERK1/2 activation
Annexin-V staining compared to DMSO (AN3CA cells [5]; 1 μM, 48, 72 or 96 hours): increase in Annexin-V staining
cells undergoing apoptosis (Annexin V-FITC labeling) (AN3CA cells [5]; 1 μM, 96 hours after drug treatment): ~70%
IC50 (VEGFR2): ~100 nM
Annexin V staining (MFE296 cells [6]): did not result in enhanced Annexin V staining
PLCγ activation (PLCγ): no change
effect on xenograft tumors [7]: minimal effect
IC50 [8]: 284 nM
IC50 [9]: > 3000 nM
cell cycle effect (AN3CA cells [10]): G1 cell cycle arrest
IC50 [11]: > 1000 nM
STAT3 activation (STAT3; AN3CA, 1 μM, 0 to 72 hours): no effect
STAT3 activation (STAT3; [20]): no effect
STAT3/5 activation (STAT3; HEC1A, 1 μM, 0 to 72 hours): no effect
STAT3 activation (STAT3; [21]): no effect
STAT3 activation (STAT3; MFE296, 1 μM, 0 to 72 hours): no effect
STAT3 activation (STAT3; [22]): no effect
p38 activation (p38; AN3CA, 1 μM, 0 to 72 hours): no effect
p38 activation (p38; [20]): no effect
p38 activation (p38; HEC1A, 1 μM, 0 to 72 hours): no effect
p38 activation (p38; [21]): no effect
p38 activation (p38; MFE296, 1 μM, 0 to 72 hours): no effect
p38 activation (p38; [22]): no effect
IC50 [12]: 61.7 nM
growth of xenograft tumors [13]: suppressed growth of all eight
tumors with tumor regression [13]: six of the eight
mean tumor shrinkage ([13]; regressing tumors): 51%

Source: patent US10191057B2, “Methods of diagnosing, classifying and treating endometrial cancer and precancer” (THE TRANSLATIONAL GENOMICS RESEARCH INSTITUTE, priority 2007, dated 2019)
